Measured values reported in patent publication US10562912B2 (C&C Research Laboratories, priority 2013, dated 2020).

What was measured:
Format in all cases: cell-based
STAT3 = target: T1, STAT3 (Homo sapiens, UniProt P40763); assay: STAT3 reporter gene assay (luciferase), LNCaP stable cell line (pSTAT3-TA-luc), IL-6 stimulation
T1 construct: plasmid pSTAT3-TA-luc), which contains a stably operating STAT3 promoter; endogenous in cells
Method in brief: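 Cytotoxicity was run on a duplicate plate with CellTiter-Glo, while the other plate gave luciferase read-outs from lysed LNCaP pSTAT3-TA-luc reporter cells. Cells were treated with graded compound concentrations plus IL-6 (10 ng/mL final) for 24–48 h in 3% DCC-FBS medium. Unstimulated and stimulated wells served as negative and positive controls.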

DU-145 = assay: Cell growth inhibition assay, prostate cancer cell line DU-145; settings: Homo sapiens, DU-145 prostate cancer cell line
Method in brief: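 Seed DU-145/HCT116 3,000 cells/well, SW626 5,000 cells/well; add compound dilution series; incubate 72–96 h, 37° C., 5% CO2; microscope check for precipitate; CellTiter-Glo, luminescence. Blank = no cells; vehicle = 0.1% DMSO.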

LNCaP = assay: Cell growth inhibition assay, prostate cancer cell line LNCaP (medium with 10 ng/mL IL-6); settings: Homo sapiens, medium supplemented with 10 ng/mL of IL-6, 10,000 cells/well
U266 = assay: Cell growth inhibition assay, blood cancer cell line U266; settings: Homo sapiens, U-266 blood cancer cell line
Protocol: The inhibitory effects of the compounds of the present invention against the growth of cancer cells were evaluated as shown below. The cancer cell lines including stomach cancer cell line (AGS), breast cancer cell lines (MDA-MB-231, MDA-MB-468, and BT-549), prostate cancer cell lines (LNCaP and DU-145), colon cancer cell line (HCT116), ovarian cancer cell line (SW626), liver cancer cell line (Hep3B), kidney cancer cell line (ACHN), lung cancer cell line (NCI-H23) and blood cancer cell lines (HEL92.1.7 and U266) were cultured under the protocol provided by each supplier. A medium supplemented with 10 ng/mL of IL-6 was used for LNCaP, a prostate cancer cell line, when treated with a drug. Each type of cells to be used in experiments were sub-cultured in a 96-well plate by counting the exact number of cells using Tali™ Image-based Cytometer (Life Technologies). In a 96-well plate, AGS, HCT116, and DU-145 were employed with 3,000 cells/well; NCI-H23, SW626, Hep3B, ACHN, BT-549, MDA-MB-231, HEL92.1.7, and U266 were employed with 5,000 cells/well; and LNCaP and MDA-MB-468 were employed with 10,000 cells/well. The cells were treated with the compounds listed in Examples which were diluted in various concentrations. Upon completion of the compounds treatment, AGS, HCT116, SW626, DU145, NCI-H23, Hep3B, ACHN, BT-549, LNCaP, HEL92.1.7, and U266 cells were cultured at 37° C. under 5% CO2 for from 72 to 96 hours, and MDA-MB-231 and MDA-MB-468 cells were cultured at 37° C. in air for from 72 to 96 hours. Subsequently, the cells were observed under microscope and drug precipitation and particular findings were investigated and recorded. And then, the 96-well plate was placed at room temperature for 30 minutes, added with 20 μL/well of CellTiter-Glo solution (Cat No. G7573, Promega) and shaken for 10 minutes, followed by being subjected to the measurement using PHERAstar™ microplate reader (BMG LABTECH) according to the supplier's general luminometer protocol. Wells where only culture liquid added without cell plating were used as a negative control, whereas wells where culture liquid containing 0.1% DMSO instead of the compounds listed in Examples were used as a positive control.

HEL92.1.7 = assay: Cell growth inhibition assay, blood cancer cell line HEL92.1.7; settings: Homo sapiens, HEL 92.1.7, HEL92.1.7 blood cancer cell line
Method in brief: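 Cells were seeded at 3,000/well (HCT116, DU-145) or 5,000/well (SW626 and the others) and exposed to serial compound dilutions for 72 to 96 h at 37 °C under 5% CO2. Viability was read as CellTiter-Glo luminescence against 0.1% DMSO and cell-free wells.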

MDA-MB-231 = assay: Cell growth inhibition assay, breast cancer cell line MDA-MB-231; settings: Homo sapiens; MDA-MB-231 breast cancer cell line, 5,000 cells/well

T1 sequence (P40763 whole entry): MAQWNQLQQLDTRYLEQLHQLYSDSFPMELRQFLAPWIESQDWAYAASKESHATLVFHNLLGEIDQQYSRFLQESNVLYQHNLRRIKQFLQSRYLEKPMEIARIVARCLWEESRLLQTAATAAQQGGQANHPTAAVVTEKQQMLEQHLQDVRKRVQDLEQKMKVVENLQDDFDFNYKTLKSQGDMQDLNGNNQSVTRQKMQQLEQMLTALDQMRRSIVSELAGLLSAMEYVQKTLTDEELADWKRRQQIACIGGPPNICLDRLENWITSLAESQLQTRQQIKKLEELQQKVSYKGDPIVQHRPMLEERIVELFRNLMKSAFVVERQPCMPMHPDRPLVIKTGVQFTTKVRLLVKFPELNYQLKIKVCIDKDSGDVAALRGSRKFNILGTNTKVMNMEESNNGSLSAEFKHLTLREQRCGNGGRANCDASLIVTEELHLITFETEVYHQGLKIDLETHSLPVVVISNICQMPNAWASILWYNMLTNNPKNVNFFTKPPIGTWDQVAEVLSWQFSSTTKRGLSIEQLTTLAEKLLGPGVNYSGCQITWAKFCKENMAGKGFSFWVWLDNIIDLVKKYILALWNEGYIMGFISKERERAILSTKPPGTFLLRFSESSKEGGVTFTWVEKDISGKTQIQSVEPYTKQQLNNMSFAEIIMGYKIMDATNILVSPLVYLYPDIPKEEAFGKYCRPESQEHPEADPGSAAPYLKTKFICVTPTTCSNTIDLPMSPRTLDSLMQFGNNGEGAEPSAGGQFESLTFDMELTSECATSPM

IC50 (STAT3)	IC50 (DU-145)	IC50 (LNCaP)	IC50 (U266)	IC50 (HEL92.1.7)	IC50 (MDA-MB-231)	SMILES
0.007 µM	0.008 µM	0.077 µM	0.044 µM	0.026 µM	0.002 µM	CCOc1cc(OC(F)(F)F)cc(C(C)(C)c2cc(Br)cc(NC(=O)c3cc4cc(NS(C)(=O)=O)ccc4s3)c2)c1 [Example 48, N-(3-bromo-5-(2-(3-ethoxy-5-(trifluoromethoxy)phenyl)propan-2-yl)phenyl)-5-(methylsulfonamido)benzo[b]thiophene-2-carboxamide]
0.021 µM	0.039 µM	0.12 µM	0.16 µM	0.42 µM	–	CCOc1cc(OC(F)(F)F)cc(C(C)(C)c2cc(Cl)cc(NC(=O)c3cc4ccc(NS(C)(=O)=O)cc4[nH]3)c2)c1 [Example 59, N-(3-chloro-5-(2-(3-ethoxy-5-(trifluoromethoxy)phenyl)propan-2-yl)phenyl)-6-(methylsulfonamido)-1H-indole-2-carboxamide]
0.052 µM	0.052 µM	0.058 µM	0.14 µM	0.09 µM	–	CC(C)Oc1cc(OC(F)(F)F)cc(C(C)(C)c2cc(Cl)cc(NC(=O)c3cc4cc(NS(C)(=O)=O)cnc4s3)c2)c1 [Example 69, N-(3-chloro-5-(2-(3-isopropoxy-5-(trifluoromethoxy)phenyl)propan-2-yl)phenyl)-5-(methylsulfonamido)thieno[2,3-b]pyridine-2-carboxamide]
0.067 µM	0.047 µM	0.16 µM	0.33 µM	0.18 µM	–	COc1cc(OC(F)(F)F)cc(C(C)(C)c2cc(Cl)cc(NC(=O)c3cc4cc(NS(C)(=O)=O)cnc4s3)c2)c1 [Example 57, N-(3-chloro-5-(2-(3-methoxy-5-(trifluoromethoxy)phenyl)propan-2-yl)phenyl)-5-(methylsulfonamido)thieno[2,3-b]pyridine-2-carboxamide]
0.024 µM	0.008 µM	0.03 µM	0.045 µM	0.048 µM	–	CC(C)Oc1cc(OC(F)(F)F)cc(C(C)(C)c2cc(F)cc(NC(=O)c3cc4cc(NS(C)(=O)=O)ccc4s3)c2)c1 [Example 82, N-(3-fluoro-5-(2-(3-isopropoxy-5-(trifluoromethoxy)phenyl)propan-2-yl)phenyl)-5-(methylsulfonamido)benzo[b]thiophene-2-carboxamide]
0.15 µM	0.066 µM	0.14 µM	0.43 µM	0.34 µM	–	CC(C)Oc1cc(CN2CCN(C(=O)C(C)(C)C)CC2)cc(C(C)(C)c2cc(Cl)cc(NC(=O)c3cc4cc(NS(C)(=O)=O)ccc4s3)c2)c1 [Example 127, N-(3-chloro-5-(2-(3-isopropoxy-5-((4-pivaloylpiperazin-1-yl)methyl)phenyl)propan-2-yl)phenyl)-5-(methylsulfonamido)benzo[b]thiophene-2-carboxamide]
0.12 µM	0.049 µM	0.24 µM	0.18 µM	0.19 µM	–	CC(C)Oc1cc(CN2CCOCC2)cc(C(C)(C)c2cc(Br)cc(NC(=O)c3cc4cc(NS(C)(=O)=O)ccc4s3)c2)c1 [Example 122, N-(3-bromo-5-(2-(3-isopropoxy-5-(morpholinomethyl)phenyl)propan-2-yl)phenyl)-5-(methylsulfonamido)benzo[b]thiophene-2-carboxamide]
0.007 µM	0.006 µM	0.032 µM	0.005 µM	0.074 µM	–	CCOc1cc(OC(F)(F)F)cc(C(C)(C)c2cc(Cl)cc(NC(=O)c3cc4cc(NS(C)(=O)=O)ccc4s3)c2)c1 [Example 58, N-(3-chloro-5-(2-(3-ethoxy-5-(trifluoromethoxy)phenyl)propan-2-yl)phenyl)-5-(methylsulfonamido)benzo[b]thiophene-2-carboxamide]
0.07 µM	0.06 µM	0.12 µM	0.28 µM	0.24 µM	–	CC(C)Oc1cc(CN2CCN(c3noc(C(C)C)n3)CC2)cc(C(C)(C)c2cc(Cl)cc(NC(=O)c3cc4cc(NS(C)(=O)=O)ccc4s3)c2)c1 [Example 129, N-(3-chloro-5-(2-(3-isopropoxy-5-((4-(5-isopropyl-1,2,4-oxadiazol-3-yl)piperazin-1-yl)methyl)phenyl)propan-2-yl)phenyl)-5-(methylsulfonamido)benzo[b]thiophene-2-carboxamide]
0.046 µM	0.042 µM	0.15 µM	0.13 µM	0.11 µM	–	CC(C)Oc1cc(CN2CCN(C(=O)OC(C)(C)C)CC2)cc(C(C)(C)c2cc(Br)cc(NC(=O)c3cc4cc(NS(C)(=O)=O)ccc4s3)c2)c1 [Example 123, tert-butyl 4-(3-(2-(3-bromo-5-(5-(methylsulfonamido)benzo[b]thiophene-2-carboxamido)phenyl)propan-2-yl)-5-isopropoxybenzyl)piperazine-1-carboxylate]
0.008 µM	0.003 µM	0.029 µM	0.021 µM	0.02 µM	–	CC#CCOc1cc(OC(F)(F)F)cc(C(C)(C)c2cc(Cl)cc(NC(=O)c3cc4cc(NS(C)(=O)=O)ccc4s3)c2)c1 [Example 75, N-(3-(2-(3-(but-2-yn-1-yloxy)-5-(trifluoromethoxy)phenyl)propan-2-yl)-5-chlorophenyl)-5-(methylsulfonamido)benzo[b]thiophene-2-carboxamide]
0.009 µM	0.048 µM	0.091 µM	0.17 µM	0.13 µM	–	CC(C)Oc1cc(OC(F)(F)F)cc(C(C)(C)c2cc(Cl)cc(NC(=O)c3cc4cc(NS(C)(=O)=O)ncc4s3)c2)c1 [Example 71, N-(3-chloro-5-(2-(3-isopropoxy-5-(trifluoromethoxy)phenyl)propan-2-yl)phenyl)-5-(methylsulfonamido)thieno[2,3-c]pyridine-2-carboxamide]
0.072 µM	0.069 µM	0.25 µM	0.43 µM	0.3 µM	–	COc1cc(OC(F)(F)F)cc(C(C)(C)c2cc(Br)cc(NC(=O)c3cc4cc(NS(C)(=O)=O)cnc4s3)c2)c1 [Example 56, N-(3-bromo-5-(2-(3-methoxy-5-(trifluoromethoxy)phenyl)propan-2-yl)phenyl)-5-(methylsulfonamido)thieno[2,3-b]pyridine-2-carboxamide]
0.066 µM	0.06 µM	0.13 µM	0.22 µM	0.14 µM	–	CCOc1cc(OC(F)(F)F)cc(C(C)(C)c2cc(Br)cc(NC(=O)c3cc4cc(NS(C)(=O)=O)ncc4s3)c2)c1 [Example 61, N-(3-bromo-5-(2-(3-ethoxy-5-(trifluoromethoxy)phenyl)propan-2-yl)phenyl)-5-(methylsulfonamido)thieno[2,3-c]pyridine-2-carboxamide]
0.016 µM	0.01 µM	0.068 µM	0.063 µM	0.057 µM	–	CC(C)(c1cc(Cl)cc(NC(=O)c2cc3cc(NS(C)(=O)=O)ccc3s2)c1)c1cc(OC(F)(F)F)cc(OC(F)(F)C(F)F)c1 [Example 80, N-(3-chloro-5-(2-(3-(1,1,2,2-tetrafluoroethoxy)-5-(trifluoromethoxy)phenyl)propan-2-yl)phenyl)-5-(methylsulfonamido)benzo[b]thiophene-2-carboxamide]
